# Test results as given in patent publication US8828696B2, “Use of Penicillin G Procaine as a selective antimicrobial agent in the production of alcohol by fermentation” (Lallemand Specialites, Inc, priority 2008, dated 2014).
# Legend:
# Lactobacillus fermentum = experiment: Bacterial inhibition test; format: cell-based; set-up: key: successful test corresponding to no growth is represented as (=); barely discernable growth is represented as (±); easily noticeable bacterial growth is represented as (+)
# Text: (§1) To directly measure the efficacy of Penicillin G Procaine and Penicillin G Potassium a bacterial inhibition test was designed using industrial isolates and chosen ATCC strains. The inhibition testing was spread over 0.1 ppm to 5.0 ppm for the Lactobacillus fermentum and 1.0 ppm to 5.0 ppm for Lactobacillus brevis species of bacteria due to the lack of response of Lactobacillus brevis at lower concentrations. […] The strains used were two isolates of Lactobacillus fermentum and 2 isolates of Lactobacillus brevis. The Lactobacillus fermentum series contained both an industry derived isolate Ind 1 and an ATCC strain while the Lactobacillus brevis series comprised of two isolates, Ind 1 and Ind 43 derived from the ethanol plants. The inhibition test plates were set in triplicate and read at 12 hour intervals up to 48 hours of test endpoint. The results below represent the mode average of the outcome from the triplicate inhibitory test sets for each trial. Table 11 lists the Lactobacillus fermentum and the Lactobacillus brevis results of the inhibition testing as follows: successful test corresponding to no growth is represented as (=), barely discernable growth is represented as (±) and easily noticeable bacterial growth is represented as (+). The set of control tests depict (=) control as just broth and (+) control as just broth with bacteria but without any antibiotic.
# (§2) The trial was set up as follows:
# (§3) • 1. Weigh out 0.1 g of each sample to be tested into a 15 ml centrifuge tube. • 2. Dissolve sample into 10 ml sterile water. […] Add antibiotic to clean tube, add 2 ml water. • b. Vortex, if antibiotic goes into solution add water for final volume of 10 ml. • c. […] Vortex until all material is in solution. • 3. Vortex the solutions to make sure that they are well mixed. • 4. Filter the solutions through a 0.2 μm syringe filter into a second labeled sterile centrifuge tube. • 5. Add antibiotic solution to MRS Broth for a final volume of 10 ml at the test concentration for each antibiotic. • 6. Mix organism solutions and add 2 μl to each of 3 wells of a 24 well plate. If tubes are used add the 2 μl to each of three tubes for each antibiotic. • 7. Transfer 1 ml of the antibiotic-broth solution to each well containing bacteria. • 8. Recap remaining antibiotic solution and return the tube to the tube rack. This tube will become the negative control for each dilution created. • 9. Add four μl of each bacterial culture to another set of wells and add […] of broth without antibiotics. These wells will be the positive controls. • 10. Incubate plates and tubes at 33 C for 48 hours, examining all samples at 24 hours for growth. Any turbidity detected should be a result of bacterial growth.
# Lactobacillus brevis = experiment: Bacterial inhibition test; format: cell-based; set-up: key to bacterial growth in inhibition test: successful test corresponding to no growth is represented as (=); barely discernable growth is represented as (±); easily noticeable bacterial growth is represented as (+)
# Text: as §1, §2, §3
smiles,measurement,setting,value
CC1(C)S[C@@H]2[C@H](NC(=O)Cc3ccccc3)C(=O)N2[C@H]1C(=O)O.CCN(CC)CCOC(=O)c1ccc(N)cc1 [Penicillin G Procaine],bacterial growth in inhibition test,"Lactobacillus fermentum; ATCC L. fermentum, 0.1 ppm, Inc Time 12",=
same,bacterial growth in inhibition test,"Lactobacillus fermentum; ATCC L. fermentum, 0.1 ppm, Inc Time 24",=
same,bacterial growth in inhibition test,"Lactobacillus fermentum; ATCC L. fermentum, 0.1 ppm, Inc Time 36",=
same,bacterial growth in inhibition test,"Lactobacillus fermentum; ATCC L. fermentum, 0.1 ppm, Inc Time 48",±
same,bacterial growth in inhibition test,"Lactobacillus fermentum; ATCC L. fermentum, 0.3 ppm, Inc Time 12",=
same,bacterial growth in inhibition test,"Lactobacillus fermentum; ATCC L. fermentum, 0.3 ppm, Inc Time 24",=
same,bacterial growth in inhibition test,"Lactobacillus fermentum; ATCC L. fermentum, 0.3 ppm, Inc Time 36",=
same,bacterial growth in inhibition test,"Lactobacillus fermentum; ATCC L. fermentum, 0.3 ppm, Inc Time 48",=
same,bacterial growth in inhibition test,"Lactobacillus fermentum; ATCC L. fermentum, 0.5 ppm, Inc Time 12",=
same,bacterial growth in inhibition test,"Lactobacillus fermentum; ATCC L. fermentum, 0.5 ppm, Inc Time 24",=
same,bacterial growth in inhibition test,"Lactobacillus fermentum; ATCC L. fermentum, 0.5 ppm, Inc Time 36",=
same,bacterial growth in inhibition test,"Lactobacillus fermentum; ATCC L. fermentum, 0.5 ppm, Inc Time 48",=
same,bacterial growth in inhibition test,"Lactobacillus fermentum; ATCC L. fermentum, 1 ppm, Inc Time 12",=
same,bacterial growth in inhibition test,"Lactobacillus fermentum; ATCC L. fermentum, 1 ppm, Inc Time 24",=
same,bacterial growth in inhibition test,"Lactobacillus fermentum; ATCC L. fermentum, 1 ppm, Inc Time 36",=
same,bacterial growth in inhibition test,"Lactobacillus fermentum; ATCC L. fermentum, 1 ppm, Inc Time 48",=
same,bacterial growth in inhibition test,"Lactobacillus fermentum; ATCC L. fermentum, 5 ppm, Inc Time 12",=
same,bacterial growth in inhibition test,"Lactobacillus fermentum; ATCC L. fermentum, 5 ppm, Inc Time 24",=
same,bacterial growth in inhibition test,"Lactobacillus fermentum; ATCC L. fermentum, 5 ppm, Inc Time 36",=
same,bacterial growth in inhibition test,"Lactobacillus fermentum; ATCC L. fermentum, 5 ppm, Inc Time 48",=
same,bacterial growth in inhibition test,"Lactobacillus fermentum; Ind 1 L. fermentum, 0.1 ppm, Inc Time 12",=
same,bacterial growth in inhibition test,"Lactobacillus fermentum; Ind 1 L. fermentum, 0.1 ppm, Inc Time 24",±
same,bacterial growth in inhibition test,"Lactobacillus fermentum; Ind 1 L. fermentum, 0.1 ppm, Inc Time 36",±
same,bacterial growth in inhibition test,"Lactobacillus fermentum; Ind 1 L. fermentum, 0.1 ppm, Inc Time 48",±
same,bacterial growth in inhibition test,"Lactobacillus fermentum; Ind 1 L. fermentum, 0.3 ppm, Inc Time 12",=
same,bacterial growth in inhibition test,"Lactobacillus fermentum; Ind 1 L. fermentum, 0.3 ppm, Inc Time 24",=
same,bacterial growth in inhibition test,"Lactobacillus fermentum; Ind 1 L. fermentum, 0.3 ppm, Inc Time 36",=
same,bacterial growth in inhibition test,"Lactobacillus fermentum; Ind 1 L. fermentum, 0.3 ppm, Inc Time 48",±
same,bacterial growth in inhibition test,"Lactobacillus fermentum; Ind 1 L. fermentum, 0.5 ppm, Inc Time 12",=
same,bacterial growth in inhibition test,"Lactobacillus fermentum; Ind 1 L. fermentum, 0.5 ppm, Inc Time 24",=
same,bacterial growth in inhibition test,"Lactobacillus fermentum; Ind 1 L. fermentum, 0.5 ppm, Inc Time 36",=
same,bacterial growth in inhibition test,"Lactobacillus fermentum; Ind 1 L. fermentum, 0.5 ppm, Inc Time 48",=
same,bacterial growth in inhibition test,"Lactobacillus fermentum; Ind 1 L. fermentum, 1.0 ppm, Inc Time 12",=
same,bacterial growth in inhibition test,"Lactobacillus fermentum; Ind 1 L. fermentum, 1.0 ppm, Inc Time 24",=
same,bacterial growth in inhibition test,"Lactobacillus fermentum; Ind 1 L. fermentum, 1.0 ppm, Inc Time 36",=
same,bacterial growth in inhibition test,"Lactobacillus fermentum; Ind 1 L. fermentum, 1.0 ppm, Inc Time 48",=
same,bacterial growth in inhibition test,"Lactobacillus fermentum; Ind 1 L. fermentum, 5.0 ppm, Inc Time 12",=
same,bacterial growth in inhibition test,"Lactobacillus fermentum; Ind 1 L. fermentum, 5.0 ppm, Inc Time 24",=
same,bacterial growth in inhibition test,"Lactobacillus fermentum; Ind 1 L. fermentum, 5.0 ppm, Inc Time 36",=
same,bacterial growth in inhibition test,"Lactobacillus fermentum; Ind 1 L. fermentum, 5.0 ppm, Inc Time 48",=
same,bacterial growth in inhibition test,"Lactobacillus brevis; Ind 1 L. brevis, 1 ppm, Inc Time 12",±
same,bacterial growth in inhibition test,"Lactobacillus brevis; Ind 1 L. brevis, 1 ppm, Inc Time 24",+
same,bacterial growth in inhibition test,"Lactobacillus brevis; Ind 1 L. brevis, 1 ppm, Inc Time 36",+
same,bacterial growth in inhibition test,"Lactobacillus brevis; Ind 1 L. brevis, 1 ppm, Inc Time 48",+
same,bacterial growth in inhibition test,"Lactobacillus brevis; Ind 1 L. brevis, 2 ppm, Inc Time 12",±
same,bacterial growth in inhibition test,"Lactobacillus brevis; Ind 1 L. brevis, 2 ppm, Inc Time 24",+
same,bacterial growth in inhibition test,"Lactobacillus brevis; Ind 1 L. brevis, 2 ppm, Inc Time 36",+
same,bacterial growth in inhibition test,"Lactobacillus brevis; Ind 1 L. brevis, 2 ppm, Inc Time 48",+
same,bacterial growth in inhibition test,"Lactobacillus brevis; Ind 1 L. brevis, 3 ppm, Inc Time 12",±
same,bacterial growth in inhibition test,"Lactobacillus brevis; Ind 1 L. brevis, 3 ppm, Inc Time 24",+
same,bacterial growth in inhibition test,"Lactobacillus brevis; Ind 1 L. brevis, 3 ppm, Inc Time 36",+
same,bacterial growth in inhibition test,"Lactobacillus brevis; Ind 1 L. brevis, 3 ppm, Inc Time 48",+
same,bacterial growth in inhibition test,"Lactobacillus brevis; Ind 1 L. brevis, 4 ppm, Inc Time 12",±
same,bacterial growth in inhibition test,"Lactobacillus brevis; Ind 1 L. brevis, 4 ppm, Inc Time 24",±
same,bacterial growth in inhibition test,"Lactobacillus brevis; Ind 1 L. brevis, 4 ppm, Inc Time 36",+
same,bacterial growth in inhibition test,"Lactobacillus brevis; Ind 1 L. brevis, 4 ppm, Inc Time 48",+
same,bacterial growth in inhibition test,"Lactobacillus brevis; Ind 1 L. brevis, 5 ppm, Inc Time 12",=
same,bacterial growth in inhibition test,"Lactobacillus brevis; Ind 1 L. brevis, 5 ppm, Inc Time 24",=
same,bacterial growth in inhibition test,"Lactobacillus brevis; Ind 1 L. brevis, 5 ppm, Inc Time 36",±
same,bacterial growth in inhibition test,"Lactobacillus brevis; Ind 1 L. brevis, 5 ppm, Inc Time 48",+
same,bacterial growth in inhibition test,"Lactobacillus brevis; Ind 43 L. brevis, 1 ppm, Inc Time 12",=
same,bacterial growth in inhibition test,"Lactobacillus brevis; Ind 43 L. brevis, 1 ppm, Inc Time 24",+
same,bacterial growth in inhibition test,"Lactobacillus brevis; Ind 43 L. brevis, 1 ppm, Inc Time 36",+
same,bacterial growth in inhibition test,"Lactobacillus brevis; Ind 43 L. brevis, 1 ppm, Inc Time 48",+
same,bacterial growth in inhibition test,"Lactobacillus brevis; Ind 43 L. brevis, 2 ppm, Inc Time 12",=
same,bacterial growth in inhibition test,"Lactobacillus brevis; Ind 43 L. brevis, 2 ppm, Inc Time 24",+
same,bacterial growth in inhibition test,"Lactobacillus brevis; Ind 43 L. brevis, 2 ppm, Inc Time 36",+
same,bacterial growth in inhibition test,"Lactobacillus brevis; Ind 43 L. brevis, 2 ppm, Inc Time 48",+
same,bacterial growth in inhibition test,"Lactobacillus brevis; Ind 43 L. brevis, 3 ppm, Inc Time 12",=
same,bacterial growth in inhibition test,"Lactobacillus brevis; Ind 43 L. brevis, 3 ppm, Inc Time 24",+
same,bacterial growth in inhibition test,"Lactobacillus brevis; Ind 43 L. brevis, 3 ppm, Inc Time 36",+
same,bacterial growth in inhibition test,"Lactobacillus brevis; Ind 43 L. brevis, 3 ppm, Inc Time 48",+
same,bacterial growth in inhibition test,"Lactobacillus brevis; Ind 43 L. brevis, 4 ppm, Inc Time 12",=
same,bacterial growth in inhibition test,"Lactobacillus brevis; Ind 43 L. brevis, 4 ppm, Inc Time 24",±
same,bacterial growth in inhibition test,"Lactobacillus brevis; Ind 43 L. brevis, 4 ppm, Inc Time 36",+
same,bacterial growth in inhibition test,"Lactobacillus brevis; Ind 43 L. brevis, 4 ppm, Inc Time 48",+
same,bacterial growth in inhibition test,"Lactobacillus brevis; Ind 43 L. brevis, 5 ppm, Inc Time 12",=
same,bacterial growth in inhibition test,"Lactobacillus brevis; Ind 43 L. brevis, 5 ppm, Inc Time 24",±
same,bacterial growth in inhibition test,"Lactobacillus brevis; Ind 43 L. brevis, 5 ppm, Inc Time 36",±
same,bacterial growth in inhibition test,"Lactobacillus brevis; Ind 43 L. brevis, 5 ppm, Inc Time 48",+
same,minimum inhibitory concentration,"Lactobacillus brevis; industry isolated Lactobacillus brevis, ppm of the fermentation mixture",1.0 ppm
